pKi: −log10 of the molar value. Converted amounts (≈) assume the structure as drawn.
Tests used:
[1] = Drug distribution in small intestine of Wistar Albino rat measured after 2 to 4 hrs; assay type: ADME, tissue-based; settings: in vivo, time 2-4 hrs
PC-3 = experiment: Cytotoxicity against human PC-3 cells assessed as reduction in cell viability incubated for 5 days by MTT assay; assay type: functional; settings: PC-3, 120 h, time 5 day
[2] = Chronic toxicity in Soviet Chinchilla rabbit assessed as change in kidney histology at 120 to 243 mg/kg, iv administered once every 3 weeks; assay type: organism-based, Oryctolagus cuniculus; settings: in vivo, 504 h, dose 120-243 mg/kg
[3] = Drug excretion in […] at 0.449 mg/kg, IT administered as single dose measured after 24 hrs; assay type: ADME, organism-based, CWR22R; settings: in vivo, other
[4] = Acute toxicity in 10 to 12 hrs fasted Wistar rat assessed as increase in kidney damage at 45 mg/kg, iv measured after 14 days; assay type: organism-based; settings: in vivo, 336 h, time 14 day
[5] = molecular target: Glutamate carboxypeptidase 2 (Homo sapiens, UniProt Q04609); experiment: Inhibition of PSMA derived from human LNCaP cell lysate assessed as inhibition of NAAG hydrolysis incubated for 2 hrs in presence of NAAG by Amplex Red assay; assay type: subcellular
Glutamate carboxypeptidase 2, sequence (Q04609 whole entry): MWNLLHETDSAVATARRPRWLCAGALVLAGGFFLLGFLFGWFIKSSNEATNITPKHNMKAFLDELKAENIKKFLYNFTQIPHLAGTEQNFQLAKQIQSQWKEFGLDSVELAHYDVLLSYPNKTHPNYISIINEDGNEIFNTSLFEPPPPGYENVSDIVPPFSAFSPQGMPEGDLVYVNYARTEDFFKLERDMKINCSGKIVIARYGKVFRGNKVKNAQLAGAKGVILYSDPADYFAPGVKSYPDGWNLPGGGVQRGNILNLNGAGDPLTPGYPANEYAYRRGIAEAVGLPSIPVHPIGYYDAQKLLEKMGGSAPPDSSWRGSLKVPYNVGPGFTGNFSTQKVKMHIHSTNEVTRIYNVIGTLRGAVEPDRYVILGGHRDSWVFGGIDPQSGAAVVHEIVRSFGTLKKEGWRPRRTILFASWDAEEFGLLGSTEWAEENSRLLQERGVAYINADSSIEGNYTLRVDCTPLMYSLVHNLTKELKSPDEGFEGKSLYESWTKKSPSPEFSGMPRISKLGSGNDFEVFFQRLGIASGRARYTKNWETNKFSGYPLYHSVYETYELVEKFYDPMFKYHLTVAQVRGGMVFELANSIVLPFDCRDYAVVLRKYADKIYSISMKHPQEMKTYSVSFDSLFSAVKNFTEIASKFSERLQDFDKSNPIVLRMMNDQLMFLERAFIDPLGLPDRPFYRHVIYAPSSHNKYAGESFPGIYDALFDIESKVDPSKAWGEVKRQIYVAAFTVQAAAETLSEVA

[6] = Chronic toxicity in Soviet Chinchilla rabbit assessed as change in blood albumin content at 120 to 243 mg/kg, iv administered once every 3 weeks; assay type: organism-based, Oryctolagus cuniculus; settings: in vivo, 504 h, dose 120-243 mg/kg
[7] = Drug uptake in bloodstream of Balb/c nude mouse xenografted with human 22Rv1 cells at 0.449 mg/kg, IT administered as single dose measured upto 8 hrs; assay type: ADME, organism-based, Blood, CWR22R; settings: in vivo, other
[8] = Acute toxicity in 10 to 12 hrs fasted Wistar rat assessed as maximum tolerated dose administered intravenously measured after 14 days; settings: in vivo, route iv, time 14 day
[9] = Volume of distribution in Soviet Chinchilla rabbit by HPLC analysis; assay type: ADME, Oryctolagus cuniculus; settings: in vivo
[10] = Elimination rate constant in Wistar Albino rat by HPLC analysis; assay type: ADME
[11] = Drug distribution in kidney of Wistar Albino rat measured after 2 to 4 hrs; assay type: ADME, tissue-based; settings: in vivo, time 2-4 hrs
[12] = C0 in Soviet Chinchilla rabbit by HPLC analysis; assay type: ADME, Oryctolagus cuniculus; settings: in vivo
[13] = Acute toxicity in 2 hrs fasted ICR mouse assessed as body weight reduction at 89.7 mg/kg, iv measured for 5 to 10 days; assay type: organism-based; settings: in vivo
[14] = Chronic toxicity in Soviet Chinchilla rabbit assessed as change in spleen histology at 120 to 243 mg/kg, iv administered once every 3 weeks; assay type: organism-based, Oryctolagus cuniculus; settings: in vivo, 504 h, dose 120-243 mg/kg
[15] = Half life in Wistar Albino rat by HPLC analysis; assay type: ADME; settings: in vivo
[16] = Drug uptake in human 22Rv1 cells xenografted in Balb/c nude mouse assessed as amount of fluorescence intensity at 0.449 mg/kg, IT administered as single dose measured after 24 hrs by IVIS Spectrum CT analysis; assay type: ADME, organism-based, CWR22R; settings: in vivo, other
[17] = Volume of distribution in Wistar Albino rat by HPLC analysis; assay type: ADME; settings: in vivo
[18] = Chronic toxicity in Soviet Chinchilla rabbit assessed as signs of intoxication at 120 to 243 mg/kg, iv administered once every 3 weeks; assay type: organism-based, Oryctolagus cuniculus; settings: in vivo, 504 h, dose 120-243 mg/kg
[19] = Drug uptake in human PC-3 cells xenografted in Balb/c nude mouse assessed as amount of fluorescence intensity at 0.449 mg/kg, IT administered as single dose measured after 24 hrs by IVIS Spectrum CT analysis; assay type: ADME, organism-based; settings: in vivo, other
[20] = Half life in Soviet Chinchilla rabbit by HPLC analysis; assay type: ADME, Oryctolagus cuniculus; settings: in vivo
[21] = Acute toxicity in 2 hrs fasted ICR mouse assessed as reversible decrease in body weight dynamics at 89.7 mg/kg, iv measured after 14 days; assay type: organism-based; settings: in vivo, 336 h, time 14 day
[22] = Acute toxicity in 2 hrs fasted ICR mouse assessed as maximum tolerated dose administered intravenously measured after 14 days; settings: in vivo, route iv
[23] = Chronic toxicity in Soviet Chinchilla rabbit assessed as change in brain histology at 120 to 243 mg/kg, iv administered once every 3 weeks; assay type: organism-based, Oryctolagus cuniculus; settings: in vivo, 504 h, dose 120-243 mg/kg
[24] = Elimination rate constant in Soviet Chinchilla rabbit by HPLC analysis; assay type: ADME, Oryctolagus cuniculus
LNCaP = experiment: Cytotoxicity against human LNCaP cells assessed as reduction in cell viability incubated for 5 days by MTT assay; assay type: functional; settings: 120 h, time 5 day
[25] = Acute toxicity in 10 to 12 hrs fasted Wistar rat assessed as change in body weight dynamics at 0.72 to 45 mg/kg, iv measured after 14 days; assay type: organism-based; settings: in vivo, 336 h, dose 0.72-45 mg/kg, time 14 day
[26] = Water solubility of the compound; assay type: physicochemical
[27] = MRT (0 to t) in Wistar Albino rat by HPLC analysis; assay type: ADME; settings: in vivo
[28] = AUC (0 to t) in Soviet Chinchilla rabbit by HPLC analysis; assay type: ADME, Oryctolagus cuniculus; settings: in vivo
[29] = AUC (0 to infinity) in Soviet Chinchilla rabbit by HPLC analysis; assay type: ADME, Oryctolagus cuniculus; set-up: time infinity; settings: in vivo
[30] = Acute toxicity in 2 hrs fasted ICR mouse assessed as toxic effect at 1.1 mg/kg, iv measured after 14 days; assay type: organism-based; settings: in vivo, 336 h, time 14 day
[31] = Acute toxicity in 10 to 12 hrs fasted Wistar rat assessed as toxic effect at 0.72 to 45 mg/kg, iv measured after 14 days; assay type: organism-based; settings: in vivo, 336 h, dose 0.72-45 mg/kg, time 14 day
[32] = Drug excretion in urine of Wistar Albino rat measured after 2 to 4 hrs; assay type: ADME; settings: in vivo, time 2-4 hrs
[33] = AUC (0 to t) in Wistar Albino rat by HPLC analysis; assay type: ADME; settings: in vivo
[34] = Chronic toxicity in Soviet Chinchilla rabbit assessed as change in lung histology at 120 to 243 mg/kg, iv administered once every 3 weeks; assay type: organism-based, Oryctolagus cuniculus; settings: in vivo, 504 h, dose 120-243 mg/kg
[35] = Chronic toxicity in Soviet Chinchilla rabbit assessed as change in heart histology at 120 to 243 mg/kg, iv administered once every 3 weeks; assay type: organism-based, Oryctolagus cuniculus; settings: in vivo, 504 h, dose 120-243 mg/kg
[36] = Acute toxicity in 2 hrs fasted ICR mouse assessed as restoration of mass gain rate at 89.7 mg/kg, iv measured on day 14; assay type: organism-based; settings: in vivo, 336 h, time 14 day
[37] = Drug distribution in blood plasma of Wistar Albino rat measured after 2 to 4 hrs; assay type: ADME, cell-free; settings: time 2-4 hrs
[38] = MRT (0 to t) in Soviet Chinchilla rabbit by HPLC analysis; assay type: ADME, Oryctolagus cuniculus; settings: in vivo
[39] = C0 in Wistar Albino rat by HPLC analysis; assay type: ADME; settings: in vivo
[40] = Clearance in Soviet Chinchilla rabbit by HPLC analysis; assay type: ADME, Oryctolagus cuniculus; settings: in vivo
[41] = AUC (0 to infinity) in Wistar Albino rat by HPLC analysis; assay type: ADME; set-up: time infinity; settings: in vivo
[42] = Clearance in Wistar Albino rat by HPLC analysis; assay type: ADME; settings: in vivo
[43] = Chronic toxicity in Soviet Chinchilla rabbit assessed as change in liver histology at 120 to 243 mg/kg, iv administered once every 3 weeks; assay type: organism-based, Oryctolagus cuniculus; settings: in vivo, 504 h, dose 120-243 mg/kg
[44] = n-Octanol/aqueous buffer distribution coefficient, log D of compound at pH 6.4 by shake flask method; assay type: physicochemical
[45] = Drug distribution in liver of Wistar Albino rat measured after 2 to 4 hrs; assay type: ADME, tissue-based; settings: in vivo, time 2-4 hrs

Compound: CN1/C(=C/C=C2C=C(/C=C/C3=[N+](CCCCCC(=O)NCc4cn(CCCNC(=O)[C@H](Cc5ccc(O)cc5)NC(=O)[C@H](Cc5ccccc5)NC(=O)CCC(=O)NCCCCCC(=O)N(CCCC[C@H](NC(=O)N[C@@H](CCC(=O)O)C(=O)O)C(=O)O)Cc5cccc(Cl)c5)nn4)c4ccc(S(=O)(=O)[O-])cc4C3(C)C)CCC/2)C(C)(C)c2cc(S(=O)(=O)O)ccc21
- Drug uptake [1]: Active
- CC50 (PC-3): 18.7 µM
- Activity [2]: Non-Toxic
- Drug uptake [3]: Active
- Activity [4]: Toxic
- pKi [5]: 7.74
- Activity [6]: Toxic
- Drug uptake [7]: Active
- MTD at 336 h [8]: 45 mg/kg
- Vd [9]: 1.49 L/kg
- k el [10]: 0.000179 s⁻¹
- Drug uptake [11]: Active
- C0 [12]: 869 µg/mL
- Activity [13]: Toxic
- Activity [14]: Non-Toxic
- half-life [15]: 1.78 h
- Activity [16]: 1.9 10^9(p/s)(uW/cm^2)
- Vd [17]: 0.954 L/kg
- Activity [18]: Non-Toxic
- Activity [19]: 1.9 10^9(p/s)(uW/cm^2)
- half-life [20]: 1.39 h
- Activity [21]: Toxic
- MTD at 14 h [22]: 89.7 mg/kg
- Activity [23]: Non-Toxic
- k el [24]: 0.000181 s⁻¹
- CC50 (LNCaP): 12.2 µM
- Activity [25]: Non-Toxic
- solubility [26]: 560 µg/mL (≈ 312 µM)
- MRT last [27]: 0.719 h
- AUC(0-t) [28]: 70000 ng·h/mL
- AUC(0-inf) [29]: 82000 ng·h/mL
- Activity [30]: Non-Toxic
- Activity [31]: Non-Toxic
- Drug excretion [32]: Active
- AUC(0-t) [33]: 53000 ng·h/mL
- Activity [34]: Non-Toxic
- Activity [35]: Non-Toxic
- Activity [36]: Non-Toxic
- Drug uptake [37]: Active
- MRT last [38]: 0.18 h
- C0 [39]: 342 µg/mL
- clearance [40]: 14 mL/min/kg
- AUC(0-inf) [41]: 76000 ng·h/mL
- clearance [42]: 8.22 mL/min/kg
- Activity [43]: Non-Toxic
- logD [44]: -0.48
- Drug uptake [45]: Active

Source: ChEMBL document CHEMBL5096171, “Synthesis and Biological Evaluation of PSMA Ligands with Aromatic Residues and Fluorescent Conjugates Based on Them” (J Med Chem, 2021)
